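The compound was tested at five concentrations on cells cultured in 96-well plates, with a 48-hour exposure period. TGI: concentration producing complete growth inhibition.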
How the values were obtained:
Assay in all cases: NCI-60 cell line screen, 48 h
HCC-2998 colon = test system: HCC-2998 colon
HCT-116 colon = test system: HCT-116 colon
MCF7 breast = test system: MCF7 breast
DU-145 prostate = test system: DU-145 prostate
A498 renal = test system: A498 renal
SR leukemia = test system: SR leukemia
SK-MEL-5 melanoma = test system: SK-MEL-5 melanoma
786-0 renal = test system: 786-0 renal
SK-MEL-2 melanoma = test system: SK-MEL-2 melanoma
UACC-257 melanoma = test system: UACC-257 melanoma
HS 578T breast = test system: HS 578T breast
MDA-N = test system: MDA-N
SNB-19 CNS = test system: SNB-19 CNS
MOLT-4 leukemia = test system: MOLT-4 leukemia
SK-MEL-28 melanoma = test system: SK-MEL-28 melanoma

CC(C)Cc1c(C#N)c(C#N)c(N)n1Cc1ccccc1
TGI (HCC-2998 colon): > 100 µM
TGI (HCT-116 colon): > 100 µM
TGI (MCF7 breast): > 100 µM
TGI (DU-145 prostate): > 100 µM
TGI (A498 renal): > 100 µM
TGI (SR leukemia): > 100 µM
TGI (SK-MEL-5 melanoma): > 100 µM
TGI (786-0 renal): > 100 µM
TGI (SK-MEL-2 melanoma): > 100 µM
TGI (UACC-257 melanoma): > 100 µM
TGI (HS 578T breast): > 100 µM
TGI (MDA-N): > 100 µM
TGI (SNB-19 CNS): > 100 µM
TGI (MOLT-4 leukemia): > 100 µM

O=[N+]([O-])c1ccc2nc3c(nc2c1)-c1c2ccccc2cc2cccc-3c12
TGI (HCC-2998 colon): > 100 µM
TGI (HCT-116 colon): > 100 µM
TGI (MCF7 breast): > 100 µM
TGI (DU-145 prostate): > 100 µM
TGI (A498 renal): 2.37 µM
TGI (SK-MEL-5 melanoma): > 100 µM
TGI (786-0 renal): > 100 µM
TGI (SK-MEL-2 melanoma): 90 µM
TGI (UACC-257 melanoma): > 94.6 µM
TGI (HS 578T breast): 33 µM
TGI (SK-MEL-28 melanoma): > 100 µM
TGI (MDA-N): 47.9 µM
TGI (SNB-19 CNS): > 54.5 µM
TGI (MOLT-4 leukemia): 31.7 µM

O=C(CN=C(CN(c1ccccc1)c1ccccc1)Oc1c(Cl)cc(Cl)cc1Cl)n1cnc2ccccc21
TGI (HCC-2998 colon): > 100 µM
TGI (HCT-116 colon): > 100 µM
TGI (MCF7 breast): > 100 µM
TGI (DU-145 prostate): > 100 µM
TGI (SR leukemia): > 100 µM
TGI (SK-MEL-5 melanoma): > 100 µM
TGI (786-0 renal): > 100 µM
TGI (UACC-257 melanoma): > 100 µM
TGI (HS 578T breast): > 100 µM
TGI (SK-MEL-28 melanoma): > 100 µM
TGI (MDA-N): > 100 µM
TGI (SNB-19 CNS): > 100 µM
TGI (MOLT-4 leukemia): > 100 µM

Cc1ccc(-n2cc(-c3ccc(Cl)cc3)c3c2N=CN2NC(c4ccco4)=NC32)cc1 (stereo not given)
TGI (HCC-2998 colon): > 100 µM
TGI (HCT-116 colon): 31.8 µM
TGI (MCF7 breast): > 100 µM
TGI (DU-145 prostate): > 100 µM
TGI (A498 renal): 29.2 µM
TGI (SR leukemia): 11.6 µM
TGI (SK-MEL-5 melanoma): > 100 µM
TGI (786-0 renal): 17.4 µM
TGI (SK-MEL-2 melanoma): 27.5 µM
TGI (UACC-257 melanoma): > 100 µM
TGI (HS 578T breast): 7.16 µM
TGI (SK-MEL-28 melanoma): > 100 µM
TGI (MDA-N): > 100 µM
TGI (SNB-19 CNS): 42.6 µM

CCOC1NC(=O)c2ccccc21 (stereo not given)
TGI (HCC-2998 colon): > 100 µM
TGI (HCT-116 colon): > 100 µM
TGI (MCF7 breast): > 100 µM
TGI (DU-145 prostate): > 100 µM
TGI (SR leukemia): > 100 µM
TGI (SK-MEL-5 melanoma): > 100 µM
TGI (786-0 renal): > 100 µM
TGI (UACC-257 melanoma): > 100 µM
TGI (HS 578T breast): > 100 µM
TGI (SK-MEL-28 melanoma): > 100 µM
TGI (MDA-N): > 100 µM
TGI (SNB-19 CNS): > 100 µM
TGI (MOLT-4 leukemia): > 100 µM

CN(C)c1nc(=NCc2ccccn2)ss1
TGI (HCC-2998 colon): > 10 µM
TGI (HCT-116 colon): > 10 µM
TGI (MCF7 breast): > 10 µM
TGI (DU-145 prostate): > 10 µM
TGI (A498 renal): > 10 µM
TGI (SR leukemia): 4.75 µM
TGI (SK-MEL-5 melanoma): > 10 µM
TGI (786-0 renal): > 5.57 µM
TGI (UACC-257 melanoma): > 10 µM
TGI (HS 578T breast): > 10 µM
TGI (SK-MEL-28 melanoma): > 10 µM
TGI (MDA-N): > 10 µM
TGI (SNB-19 CNS): > 10 µM
TGI (MOLT-4 leukemia): 4.91 µM

CCNC(=S)N/N=C/c1ccccn1
TGI (HCT-116 colon): 73.7 µM
TGI (DU-145 prostate): 58.5 µM
TGI (A498 renal): 36.8 µM
TGI (SR leukemia): > 100 µM
TGI (SK-MEL-5 melanoma): 19.9 µM
TGI (786-0 renal): > 100 µM
TGI (SK-MEL-2 melanoma): > 100 µM
TGI (UACC-257 melanoma): > 100 µM
TGI (HS 578T breast): > 100 µM
TGI (SK-MEL-28 melanoma): > 100 µM
TGI (MDA-N): > 100 µM
TGI (SNB-19 CNS): > 100 µM
TGI (MOLT-4 leukemia): > 100 µM

CCOC(=O)Cc1nn2c(=O)cc(C)nc2s1
TGI (HCC-2998 colon): > 100 µM
TGI (HCT-116 colon): > 100 µM
TGI (MCF7 breast): > 100 µM
TGI (DU-145 prostate): > 100 µM
TGI (SR leukemia): > 100 µM
TGI (SK-MEL-5 melanoma): > 100 µM
TGI (786-0 renal): > 100 µM
TGI (SK-MEL-2 melanoma): > 100 µM
TGI (UACC-257 melanoma): > 100 µM
TGI (HS 578T breast): > 100 µM
TGI (SK-MEL-28 melanoma): > 100 µM
TGI (MDA-N): > 100 µM
TGI (SNB-19 CNS): > 100 µM
TGI (MOLT-4 leukemia): > 100 µM

O=C(NCCCNCCCCNCCCNC(=O)C(F)(F)F)C(F)(F)F
TGI (HCC-2998 colon): > 100 µM
TGI (HCT-116 colon): > 100 µM
TGI (MCF7 breast): > 100 µM
TGI (DU-145 prostate): > 100 µM
TGI (A498 renal): > 100 µM
TGI (SK-MEL-5 melanoma): > 100 µM
TGI (786-0 renal): > 100 µM
TGI (SK-MEL-2 melanoma): > 100 µM
TGI (UACC-257 melanoma): > 100 µM
TGI (HS 578T breast): > 100 µM
TGI (SK-MEL-28 melanoma): > 100 µM
TGI (MDA-N): > 100 µM

Cc1cc2c(cc1Cl)SC(NNc1cnc3ccccc3n1)=NS2(=O)=O
TGI (HCC-2998 colon): > 100 µM
TGI (HCT-116 colon): > 100 µM
TGI (DU-145 prostate): > 100 µM
TGI (A498 renal): 65.7 µM
TGI (SK-MEL-5 melanoma): > 100 µM
TGI (786-0 renal): > 100 µM
TGI (UACC-257 melanoma): > 100 µM
TGI (HS 578T breast): > 100 µM
TGI (SK-MEL-28 melanoma): > 100 µM
TGI (MDA-N): > 100 µM
TGI (SNB-19 CNS): > 100 µM
TGI (MOLT-4 leukemia): 63.5 µM

CC12CCC(C/C1=N\NC(N)=O)C2(C)C (stereo not given)
TGI (HCT-116 colon): > 100 µM
TGI (MCF7 breast): > 100 µM
TGI (DU-145 prostate): > 100 µM
TGI (SR leukemia): > 100 µM
TGI (SK-MEL-5 melanoma): > 100 µM
TGI (786-0 renal): > 100 µM
TGI (SK-MEL-2 melanoma): > 100 µM
TGI (UACC-257 melanoma): > 100 µM
TGI (HS 578T breast): > 100 µM
TGI (SK-MEL-28 melanoma): > 100 µM
TGI (MDA-N): > 100 µM
TGI (SNB-19 CNS): > 100 µM
TGI (MOLT-4 leukemia): > 100 µM

CCOC(=O)c1c(NC(=S)Nc2ccc(C)cc2)sc2c1CCN(C)C2
TGI (HCT-116 colon): > 100 µM
TGI (MCF7 breast): > 100 µM
TGI (DU-145 prostate): > 100 µM
TGI (A498 renal): > 100 µM
TGI (SK-MEL-5 melanoma): > 100 µM
TGI (786-0 renal): > 100 µM
TGI (SK-MEL-2 melanoma): > 100 µM
TGI (UACC-257 melanoma): > 100 µM
TGI (HS 578T breast): > 100 µM
TGI (MDA-N): > 100 µM
TGI (SNB-19 CNS): > 100 µM
TGI (MOLT-4 leukemia): > 100 µM

CCOC(=O)c1[nH]c2nc(SC)nc(NC)c2c1N
TGI (HCC-2998 colon): > 100 µM
TGI (HCT-116 colon): > 100 µM
TGI (DU-145 prostate): > 100 µM
TGI (A498 renal): > 100 µM
TGI (SK-MEL-5 melanoma): > 100 µM
TGI (786-0 renal): > 100 µM
TGI (SK-MEL-2 melanoma): > 100 µM
TGI (UACC-257 melanoma): > 100 µM
TGI (HS 578T breast): > 100 µM
TGI (SK-MEL-28 melanoma): > 100 µM
TGI (MDA-N): > 100 µM
TGI (SNB-19 CNS): > 100 µM
TGI (MOLT-4 leukemia): > 100 µM

CC1(C)OC(CCO)CN1C(=O)OCc1ccccc1 (stereo not given)
TGI (HCC-2998 colon): > 100 µM
TGI (HCT-116 colon): > 100 µM
TGI (MCF7 breast): > 100 µM
TGI (DU-145 prostate): > 100 µM
TGI (A498 renal): > 100 µM
TGI (SR leukemia): > 100 µM
TGI (SK-MEL-5 melanoma): > 100 µM
TGI (786-0 renal): > 100 µM
TGI (SK-MEL-2 melanoma): > 100 µM
TGI (UACC-257 melanoma): > 100 µM
TGI (SK-MEL-28 melanoma): > 100 µM
TGI (MDA-N): > 100 µM
TGI (SNB-19 CNS): > 100 µM
TGI (MOLT-4 leukemia): > 100 µM

COc1cc(-c2c3c(cc4c2OCO4)[C@@H](Nc2ccc4c(c2)Cc2cc(N[C@@H]5c6cc7c(cc6C(c6cc(OC)c(O)c(OC)c6)[C@H]6C(=O)OC[C@H]56)OCO7)ccc2-4)[C@H]2COC(=O)[C@@H]2C3)cc(OC)c1O (stereo not given in full)
TGI (HCT-116 colon): 57 µM
TGI (MCF7 breast): > 100 µM
TGI (DU-145 prostate): > 100 µM
TGI (A498 renal): 94.2 µM
TGI (SR leukemia): 56.5 µM
TGI (SK-MEL-5 melanoma): 46.2 µM
TGI (786-0 renal): 63.7 µM
TGI (UACC-257 melanoma): > 100 µM
TGI (HS 578T breast): > 100 µM
TGI (SK-MEL-28 melanoma): 70 µM
TGI (MDA-N): 34.3 µM
TGI (SNB-19 CNS): > 100 µM
TGI (MOLT-4 leukemia): > 100 µM

c1ccc(-c2ccc(N=NN3CCCC3)cc2)cc1
TGI (HCT-116 colon): > 100 µM
TGI (MCF7 breast): > 100 µM
TGI (DU-145 prostate): > 100 µM
TGI (A498 renal): > 100 µM
TGI (SR leukemia): > 100 µM
TGI (SK-MEL-5 melanoma): > 100 µM
TGI (786-0 renal): > 100 µM
TGI (SK-MEL-2 melanoma): > 100 µM
TGI (UACC-257 melanoma): > 100 µM
TGI (HS 578T breast): > 100 µM
TGI (MDA-N): > 100 µM
TGI (SNB-19 CNS): > 100 µM
TGI (MOLT-4 leukemia): > 100 µM

Clc1cccc(C2ON=C(c3ccccc3)N2C23CC4CC(CC(C4)C2)C3)c1Cl (stereo not given)
TGI (HCC-2998 colon): > 10 µM
TGI (HCT-116 colon): > 10 µM
TGI (MCF7 breast): > 10 µM
TGI (DU-145 prostate): > 10 µM
TGI (A498 renal): > 10 µM
TGI (SK-MEL-5 melanoma): > 10 µM
TGI (786-0 renal): > 10 µM
TGI (SK-MEL-2 melanoma): > 10 µM
TGI (UACC-257 melanoma): > 10 µM
TGI (HS 578T breast): > 10 µM
TGI (SK-MEL-28 melanoma): > 10 µM
TGI (MDA-N): > 10 µM
TGI (SNB-19 CNS): > 10 µM
TGI (MOLT-4 leukemia): > 10 µM
